Key:
[1] = human trials; cited from earlier work
BMDC = assay: Cell death of BMDC by TUNEL assay; assay type: cell-based, mice; details: GM-CSF-cultured BMDC, zVAD 50 μM + Necrostatin 50 μM
Method: (§1) The preparation of bone marrow-derived dendritic cells (BMDC) was done according to the method of Lutz et al. (26) using GM-CSF ([…] PeproTech, Rocky Hill N.J.) or GM-CSF plus IL-4 (10 μg/ml, PeproTech). Cells were used on day 7.
(§2) Cell death was examined by terminal deoxynucleotidyl transferase dUTP nick end labeling (TUNEL). Briefly, cells were stained for expression of cell surface molecules, and then fixed with 1% methanol-free formaldehyde followed by 70% ethanol. After washing, the TUNEL reaction was performed by incubating cells in 50 μl of reaction mix containing 10 units of terminal deoxribosyl transferase (TdT), 2.5 mM cobalt chloride in 1× TdT buffer, and 0.2 pmol/μl of FITC-dUTP (Roche, Indianapolis, Ind.) at 37° C. for 1 hour. The cells were washed twice and fixed in 1% methanol-free formaldehyde. Murine thymocytes were included as a positive control for apoptotic cells. Flow cytometry was performed on an LSRII (BD Biosciences, San Jose, Calif.) calibrated with compensation beads (BD Biosciences). Analysis was performed using FlowJo software (Tree Star, Inc., Ashland, Oreg.).

γδ T cells = assay: Mixed cultures of γδ T cells and BMDC: γδ T cell activation (IL-17, IFN-γ, CD25); assay type: cell-based, mice
Method: Cells were washed three times and then rocked with goat anti-rat conjugated magnetic beads at a 10:1 ratio of beads to cell at 4° C. for 45 min. Magnetic depletion was used to remove bead-bound cells. […] After 2 days, cells were removed from anti-TCR-γδ stimulation, supplied with fresh medium plus IL-2, and returned to culture at a density of 0.3×10^6 cells/ml. Cells were counted daily and supplied with fresh media containing 50 units/ml IL-2. […] In addition, in some experiments freshly isolated splenic γδ T cells were prepared using anti-γδ-coated magnetic beads (Miltenyi Biotec) and magnet purification.
as §1
Day 7 γδ T cells and BMDC were cultured either individually or together at a 1:1 ratio (10^6 cells/ml each). To some cultures the following reagents were added: a sonicate of Borrelia burgdorferi (10 μg/ml), zVAD-fmk (MP Biomedical, Santa Ana Calif.) at the doses indicated, necrostatin (50 μM, R&D Systems, Minneapolis, Minn.), anti-TNF-α (10 μg/ml, Calbiochem, Darnstadt, Germany),, anti-IL-1 Receptor antagonist, Anakinra (200 ng/ml, Amgen, Thousand Oaks, Calif.), anti-IL-12 (10 μg/ml, BioLegend San Diego, Calif.), anti-IL-18 (10 μg/ml, MBL, Woburn Mass.), or rat IgG (10 μg/ml Jackson Immunoresearch, West Grove Pa.). Transwell assays were performed using 1×10^6 γδ T cells in 1 ml of complete medium+IL-2 placed in the lower chamber, with 5×10^5 DC in 100 μl placed in the upper chamber. […]
Cytokine levels of IFN-γ, IL-1β, IL-12p40, IL-12p70, IL-17, and TNF-α were detected using the Bio-Plex, MilliPlex, or Luminex immunoassay (Bio-Rad; Millipore-EMD; R&D Systems, Minneapolis, Minn.) according to the manufacturer's protocol. Briefly, samples were run undiluted or diluted 1:10 in RPMI complete media. 50 μl of the magnetic bead working solution was added to each well, then 50 μl of appropriate samples or standards were then added to wells and incubated at room temperature for 30-120 min at 800 rpm on an IKA MS 3 digital shaker. After three washes with 100 μl Bio-Plex wash buffer, incubation with 25 μl of detection antibody solution was done at room temperature for 30-60 min on the shaker. Following another set of three washes, 50 μl of streptavidin-phycoerythrin (PE) in assay buffer was added to each well and incubated as described for the previous step. After an additional three washes, 125 μl of assay buffer was added. Sample data was analyzed with Bio-Plex Manager software.
The following monoclonal antibodies to murine cell surface molecules were purchased from BioLegend: PE-conjugated anti-CD25, APC-conjugated anti-TCR-γδ, and TNF-α neutralizing antibody. Rat IgG was purchased from Jackson Immunoresearch (West Grove, Pa.). For direct staining, single cell suspensions (1×10^6 total cells per staining condition) were washed with cold (4° C.) PBS containing 1% (w/v) BSA fraction V (Sigma) (PBS/1% BSA), incubated with unconjugated rat IgG (50 μg/ml) for 15 min at 4° C., washed again, and then incubated with the appropriate antibodies in PBS/1% BSA. After washing, the cells were fixed with freshly made 1% (v/v) methanol-free formaldehyde (Ted Pella Inc., Redding, Calif.) in PBS/1% BSA.

c-FLIP, caspase-8 = target: T1, c-FLIP, caspase-8 (Mus musculus, UniProt O89110); assay: c-FLIP and active caspases in BMDC (biotin-VAD precipitation, immunoblot); assay type: cell-based, mice
T1 construct: endogenous in cells; host or cells: bone marrow-derived dendritic cells (BMDC), day 7, grown in GM-CSF with or without IL-4; whole cell lysates and biotin-VAD precipitates
Method: as §1
Day 7 BMDC were lysed in Tris-buffer containing Complete Protease Inhibitor (Roche), 0.2% NP-40 (Roche), and biotin-VAD-fmk (10 μM, MP Biomedicals, Santa Ana, Calif.). Insoluble cell fragments were removed by centrifugation, and the protein concentration of the resulting whole cell lysates was determined by Bradford assay (BioRad, Hercules, Calif.). Whole cell lysates (30 μg per lane) were separated by SDS-PAGE. Precipitation of active caspases was performed by rocking 600 μg of whole cell lysates initially with sepharose 4B beads (Sigma) at 4° C. for 2 hours to remove nonspecific binding of proteins to the beads, followed by overnight rocking incubation with streptavidin-conjugated sepharose beads (Invitrogen) at 4° C. Release of biotin-VAD-fmk-labeled caspases from the streptavidin beads was achieved by heating to 95° C. for 10 min in Laemmli buffer. After gel electrophoresis, proteins were transferred to PVDF membranes (0.2 μm pore size, Bio-Rad), and immunoblots were performed using antibodies (1 μg/ml) against caspase-3, caspase-8 (both Cell Signaling, Danvers, Mass.), caspase-9 (Stressgen, Farmingdale, N.Y.), and RIPK1 (BD Biosciences).

human DC = assay: Cell death of human DC from peripheral blood monocytes; assay type: cell-based; details: addition of IL-4 to GM-CSF culture
Method: as §2, with “Human monocytes were obtained as […] cells by magnetic bead purification (Miltenyi Biotech, Auburn, Calif.) from peripheral blood of healthy volunteers. Myeloid DC were prepared by culture of monocytes in AIM V media plus 10% fetal calf serum (HyClone) with 800 U/ml of granulocyte-macrophage colony-stimulating factor (GM-CSF), (BioLegend, San Diego, Calif.) without or with 500 U/ml IL-4 (BioLegend). Cell” for “Cell”

[2] = γδ T cells + BMDC + B. burgdorferi, zVAD+Necrostatin, 20 h
[3] = exogenous TNF-α (2.5 μg/ml) added, absence of Borrelia

T1 sequence (O89110 219-480): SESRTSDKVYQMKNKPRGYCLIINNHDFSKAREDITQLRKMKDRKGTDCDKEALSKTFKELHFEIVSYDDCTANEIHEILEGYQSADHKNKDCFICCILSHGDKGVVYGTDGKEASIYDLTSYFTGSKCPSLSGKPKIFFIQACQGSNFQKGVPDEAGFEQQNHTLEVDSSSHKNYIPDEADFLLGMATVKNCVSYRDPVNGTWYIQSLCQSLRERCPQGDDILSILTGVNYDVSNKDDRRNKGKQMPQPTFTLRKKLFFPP
T1 sequence (O35732 whole entry partner): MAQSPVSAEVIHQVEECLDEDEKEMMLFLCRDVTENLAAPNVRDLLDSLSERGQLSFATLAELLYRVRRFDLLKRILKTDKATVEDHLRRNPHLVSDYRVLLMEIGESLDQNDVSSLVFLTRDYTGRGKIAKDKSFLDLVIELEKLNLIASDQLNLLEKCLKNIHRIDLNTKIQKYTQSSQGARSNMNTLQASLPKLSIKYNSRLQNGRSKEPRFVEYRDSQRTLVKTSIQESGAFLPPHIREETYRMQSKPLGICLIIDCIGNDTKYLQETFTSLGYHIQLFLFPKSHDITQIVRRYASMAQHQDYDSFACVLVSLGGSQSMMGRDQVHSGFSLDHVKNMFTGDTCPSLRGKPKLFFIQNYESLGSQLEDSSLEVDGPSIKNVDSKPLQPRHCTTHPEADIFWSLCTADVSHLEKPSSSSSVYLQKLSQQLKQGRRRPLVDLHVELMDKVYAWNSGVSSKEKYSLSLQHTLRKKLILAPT

In the case of `C[C@H](NC(=O)C(=O)Nc1ccccc1C(C)(C)C)C(=O)N[C@@H](CC(=O)O)C(=O)COc1c(F)c(F)cc(F)c1F` [IDN-6556], the “preserving liver function during hepatitis C virus infection” value [1] is given as “showing promise” and the serious side-effects [1] is given as “without exhibiting serious side-effects”.
With `CN1C(=O)C(Cc2c[nH]c3ccccc23)NC1=S` (centres unmarked) [Necrostatin] the “cell death of zVAD-treated BMDC” value (BMDC) was “rescued them from cell death”, the “production of these cytokines (TNF-α, IL-17, IFN-γ); toxicity check” value (γδ T cells; Necrostatin with Borrelia in the absence of zVAD) was “did not block production” and the “TNF-α production by zVAD-treated BMDC” value (γδ T cells; [2]) was “reversed”. The “production of IFN-γ by γδ T cells” value (γδ T cells; [2]) was “reversed” and the “production of IL-17 by γδ T cells” value (γδ T cells; [2]) was “reversed”.
With “IL-4: cytokine added with GM-CSF during generation of BMDC; upregulates c-FLIP” the “ability of BMDC to activate Borrelia-stimulated γδ T cells” value (γδ T cells; BMDC grown with GM-CSF+IL-4, absence or presence of zVAD) was “much less able to activate”, the “level of c-FLIP” value (c-FLIP, caspase-8; BMDC grown in GM-CSF+IL-4 vs GM-CSF, 7 days) was “considerably increased” and the “level of active caspase-8” value (c-FLIP, caspase-8; BMDC grown in GM-CSF+IL-4 vs GM-CSF, bVAD precipitates) was “increase in the level of active caspase-8”. For the same compound, the “levels of total cellular caspase-8, caspase-9, or caspase-3” value (c-FLIP, caspase-8; whole cell lysates, BMDC grown in GM-CSF or GM-CSF+IL-4) was “no difference” and the “zVAD-induced death of human DC” value (human DC) was “blocked”.
For TNF-α, the “production of IFNγ by γδ T cells” value (γδ T cells; [3]) was “did not augment production” and the “production of IL-17 by γδ T cells” value (γδ T cells; [3]) was “did not augment production”.
